According to patent publication US10597388B2, “Pyridazinone herbicides” (FMC CORPORATION, priority 2014, dated 2020):

Assays:
Assay in all cases: Test E greenhouse herbicide test, pre- and postemergence
Assay type in all cases: in vivo
[1] = test system: foxtail, giant (giant foxtail, Setaria faberii); details: Preemergence
Procedure, shortened: (§1)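 Compounds in surfactant-containing solvent are applied to soil right after sowing (silt loam) and, in parallel, to 1- to 4-leaf plants in a peat-based medium. Weed control is scored visually on a 0 (none) to 100 (complete) scale at 14 to 21 d.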

[2] = test system: soybean (Glycine max)
Procedure, shortened: as §1

[3] = test system: arrowleaf sida (Sida rhombifolia)
Procedure, shortened: as §1

[4] = test system: johnsongrass (Sorghum halepense); details: Preemergence
Procedure, shortened: as §1

[5] = test system: crabgrass, Brazilian (Brazilian crabgrass, Digitaria horizontalis)
Procedure, shortened: as §1

[6] = test system: beggarticks (hairy beggarticks, Bidens pilosa)
Procedure, shortened: as §1

[7] = test system: surinam grass (Brachiaria decumbens); details: Preemergence
Procedure, shortened: as §1

[8] = test system: velvetleaf (Abutilon theophrasti); details: Preemergence
Procedure, shortened: as §1

[9] = test system: pigweed, palmer (palmer pigweed, Amaranthus palmeri)
Procedure, shortened: as §1

[10] = test system: kochia (Kochia scoparia)
Procedure, shortened: as §1

[11] = test system: sandbur (southem sandbur, Cenchrus echinatus)
Procedure, shortened: as §1

[12] = test system: nightshade (eastern black nightshade, Solanum ptycanthum); details: Preemergence
Procedure, shortened: as §1

[13] = test system: corn (Zea mays)
Procedure, shortened: as §1

[14] = test system: ragweed (common ragweed, Ambrosia elatior)
Procedure, shortened: as §1

[15] = test system: lambsquarters (Chenopodium album); details: Preemergence
Procedure, shortened: as §1

[16] = test system: panicum, fall (fall panicum, Panicum dichotomiflorum)
Procedure, shortened: as §1

[17] = test system: goosegrass (Eleusine indica); details: Preemergence
Procedure, shortened: as §1

[18] = 62 g ai/ha, scale 0 to 100 (0 no effect, 100 complete control)
[19] = 125 g ai/ha, scale 0 to 100 (0 no effect, 100 complete control)
[20] = 31 g ai/ha, scale 0 to 100, 0 no effect, 100 complete control
[21] = 250 g ai/ha, visual, scale 0 no effect to 100 complete control
[22] = 62 g ai/ha, Preemergence, scale 0 to 100 (0 no effect, 100 complete control)
[23] = 125 g ai/ha, Postemergence, scale 0 to 100 (0 no effect, 100 complete control)
[24] = 125 g ai/ha, Preemergence, scale 0 to 100 (0 no effect, 100 complete control)
[25] = 250 g ai/ha, Postemergence, scale 0 to 100 (0 no effect, 100 complete control)
[26] = Postemergence, 31 g ai/ha, visual, scale 0 no effect to 100 complete control
[27] = Preemergence, 31 g ai/ha, scale 0 to 100, 0 no effect, 100 complete control
[28] = Preemergence, 250 g ai/ha, visual, scale 0 no effect to 100 complete control
[29] = 62 g ai/ha, Postemergence, scale 0 to 100 (0 no effect, 100 complete control)

COC(=O)Oc1c(C)nn(C)c(=O)c1-c1c(C)sc2c(C)cc(C)cc12 [Compound 81]
Plant response rating, Foxtail, Giant [1, 18]: 98 | Plant response rating, Foxtail, Giant [1, 19]: 98 | Plant response rating, Foxtail, Giant [1, 20]: 75 | Plant response rating, Foxtail, Giant [1, 21]: 100 | Plant response rating, Soybean [2, 22]: 0 | Plant response rating, Soybean [2, 23]: 0 | Plant response rating, Soybean [2, 24]: 0 | Plant response rating, Soybean [2, 25]: 10 | Plant response rating, Soybean [2, 26]: 0 | Plant response rating, Soybean [2, 27]: 0 | Plant response rating, Soybean [2, 28]: 0 | Plant response rating, Arrowleaf Sida [3, 29]: 40 | Plant response rating, Arrowleaf Sida [3, 22]: 60 | Plant response rating, Arrowleaf Sida [3, 23]: 30 | Plant response rating, Arrowleaf Sida [3, 24]: 70 | Plant response rating, Arrowleaf Sida [3, 25]: 60 | Plant response rating, Arrowleaf Sida [3, 26]: 40 | Plant response rating, Arrowleaf Sida [3, 27]: 40 | Plant response rating, Arrowleaf Sida [3, 28]: 70 | Plant response rating, Johnsongrass [4, 18]: 90 | Plant response rating, Johnsongrass [4, 19]: 65 | Plant response rating, Johnsongrass [4, 20]: 70 | Plant response rating, Johnsongrass [4, 21]: 100 | Plant response rating, Crabgrass, Brazil [5, 29]: 40 | Plant response rating, Crabgrass, Brazil [5, 22]: 95 | Plant response rating, Crabgrass, Brazil [5, 23]: 50 | Plant response rating, Crabgrass, Brazil [5, 24]: 90 | Plant response rating, Crabgrass, Brazil [5, 25]: 50 | Plant response rating, Crabgrass, Brazil [5, 26]: 40 | Plant response rating, Crabgrass, Brazil [5, 27]: 65 | Plant response rating, Crabgrass, Brazil [5, 28]: 100 | Plant response rating, Beggarticks [6, 29]: 100 | Plant response rating, Beggarticks [6, 22]: 100 | Plant response rating, Beggarticks [6, 23]: 100 | Plant response rating, Beggarticks [6, 24]: 100 | Plant response rating, Beggarticks [6, 25]: 100 | Plant response rating, Beggarticks [6, 26]: 90 | Plant response rating, Beggarticks [6, 27]: 80 | Plant response rating, Beggarticks [6, 28]: 100 | Plant response rating, Surinam Grass [7, 18]: 90 | Plant response rating, Surinam Grass [7, 19]: 95 | Plant response rating, Surinam Grass [7, 20]: 70 | Plant response rating, Surinam Grass [7, 21]: 95 | Plant response rating, Velvetleaf [8, 18]: 70 | Plant response rating, Velvetleaf [8, 19]: 90 | Plant response rating, Velvetleaf [8, 20]: 10 | Plant response rating, Velvetleaf [8, 21]: 95 | Plant response rating, Pigweed, Palmer [9, 29]: 20 | Plant response rating, Pigweed, Palmer [9, 22]: 75 | Plant response rating, Pigweed, Palmer [9, 24]: 75 | Plant response rating, Pigweed, Palmer [9, 25]: 50 | Plant response rating, Pigweed, Palmer [9, 26]: 30 | Plant response rating, Pigweed, Palmer [9, 27]: 35 | Plant response rating, Pigweed, Palmer [9, 28]: 100 | Plant response rating, Kochia [10, 29]: 70 | Plant response rating, Kochia [10, 22]: 20 | Plant response rating, Kochia [10, 23]: 70 | Plant response rating, Kochia [10, 24]: 35 | Plant response rating, Kochia [10, 25]: 75 | Plant response rating, Kochia [10, 26]: 60 | Plant response rating, Kochia [10, 27]: 0 | Plant response rating, Kochia [10, 28]: 100 | Plant response rating, Sandbur [11, 22]: 40 | Plant response rating, Sandbur [11, 23]: 70 | Plant response rating, Sandbur [11, 24]: 70 | Plant response rating, Sandbur [11, 25]: 75 | Plant response rating, Sandbur [11, 26]: 60 | Plant response rating, Sandbur [11, 27]: 10 | Plant response rating, Sandbur [11, 28]: 90 | Plant response rating, Nightshade [12, 18]: 90 | Plant response rating, Nightshade [12, 19]: 100 | Plant response rating, Nightshade [12, 20]: 80 | Plant response rating, Nightshade [12, 21]: 98 | Plant response rating, Corn [13, 29]: 0 | Plant response rating, Corn [13, 22]: 0 | Plant response rating, Corn [13, 23]: 5 | Plant response rating, Corn [13, 24]: 0 | Plant response rating, Corn [13, 25]: 5 | Plant response rating, Corn [13, 26]: 0 | Plant response rating, Corn [13, 27]: 0 | Plant response rating, Corn [13, 28]: 0 | Plant response rating, Ragweed [14, 29]: 60 | Plant response rating, Ragweed [14, 22]: 100 | Plant response rating, Ragweed [14, 23]: 85 | Plant response rating, Ragweed [14, 24]: 100 | Plant response rating, Ragweed [14, 25]: 80 | Plant response rating, Ragweed [14, 26]: 60 | Plant response rating, Ragweed [14, 27]: 90 | Plant response rating, Ragweed [14, 28]: 100 | Plant response rating, Lambsquarters [15, 18]: 100 | Plant response rating, Lambsquarters [15, 19]: 100 | Plant response rating, Lambsquarters [15, 20]: 98 | Plant response rating, Lambsquarters [15, 21]: 100 | Plant response rating, Panicum, Fall [16, 29]: 80 | Plant response rating, Panicum, Fall [16, 22]: 100 | Plant response rating, Panicum, Fall [16, 23]: 85 | Plant response rating, Panicum, Fall [16, 24]: 100 | Plant response rating, Panicum, Fall [16, 25]: 90 | Plant response rating, Panicum, Fall [16, 26]: 85 | Plant response rating, Panicum, Fall [16, 27]: 98 | Plant response rating, Panicum, Fall [16, 28]: 100 | Plant response rating, Goosegrass [17, 18]: 40 | Plant response rating, Goosegrass [17, 19]: 70 | Plant response rating, Goosegrass [17, 20]: 20 | Plant response rating, Goosegrass [17, 21]: 80
